Experiments:
Type in all cases: cell-based, mouse
[1] = tested on: PGE2 production in LPS-induced macrophages; assay: PGE2 assay in LPS-induced RAW264.7 macrophages; conditions: pure compound in cell media, 1 μg/ml LPS, 8 hours
Method: RAW264.7 macrophages were purchased from the American Type Culture Collections (ATCC; […] Cells were plated at a density of 1.0×10^5 cells/well in 24-well cell culture plates and allowed to attach overnight. […] Louis, Mo.) and solvent alone, dimethylsulfoxide (DMSO) (Sigma, St. Louis, Mo.), or H. gentianoides extract or fraction simultaneously for 8 hours. Cell supernatants were collected on ice, and stored in a −70° C. freezer for use in the PGE2 assay. […] Four controls were included in each treatment: media alone, media and DMSO, media and LPS, and media and LPS and DMSO. In addition, 10 μM quercetin was used as a positive control. Since H. perforatum contains light-activated compounds, the H. gentianoides extract was tested in both light-activated and dark conditions initially to determine if the activity was dependent on light activation. […] The supernatant samples were assayed with a Prostaglandin E2 EIA kit (GE Biosciences, Piscataway, N.J.) according to manufacturer's instructions. […] Data is shown as mean percent reduction in LPS-induced PGE2 levels±the standard error as compared to the media+LPS+DMSO control. Statistical significance was determined by an F-protected two-way ANOVA followed by a Tukey-Kramer test for multiple comparisons (Snedecor, G. W., Cochran, W. G., Eds. (1989). Statistical Methods, 8th ed. University Press: Ames, Iowa). For cytotoxicity, data are represented as mean % cytotoxicity±standard error as compared to the media+DMSO control. Statistical significance was determined by an F-protected two-way ANOVA followed by a Dunnett-Hsu test for multiple comparisons (Dunnett C. W. (1955). “A multiple comparison procedure for comparing several treatments with a control.” Journal of the American Statistical Association. 50:1096-1121). […] The ability of H. gentianoides extracts to reduce the inflammatory response was assessed by quantifying PGE2 production in LPS-induced macrophages. […]

RAW264.7 macrophages = assay: CellTiter96 cytotoxicity assay in RAW264.7 macrophages
Method: CellTiter96® Aqueous One Solution cell proliferation assay (Promega Corporation, Madison, Wis.) was used as previously described in Schmitt et al. with an 8-hour treatment incubation instead of 24-hour treatment incubation to parallel the anti-inflammatory studies (Schmitt, L. A., et al., (2006)). Following the 8 hour incubation, treatment solutions were removed and fresh media and Celltiter96® dye were added for 3 hours and 15 minutes (Schmitt, L. A., et al., (2006)). The metabolized dye solutions were transferred to 96-well plates for absorbance measurement at 490 nm. The number of viable cells for each treatment was compared to the media+DMSO solvent control. Treatment with 20 μM hypericin was used as a positive control. Data is shown as mean percent reduction in LPS-induced PGE2 levels±the standard error as compared to the media+LPS+DMSO control. Statistical significance was determined by an F-protected two-way ANOVA followed by a Tukey-Kramer test for multiple comparisons (Snedecor, G. W., Cochran, W. G., Eds. (1989). Statistical Methods, 8th ed. University Press: Ames, Iowa). For cytotoxicity, data are represented as mean % cytotoxicity±standard error as compared to the media+DMSO control. Statistical significance was determined by an F-protected two-way ANOVA followed by a Dunnett-Hsu test for multiple comparisons (Dunnett C. W. (1955). “A multiple comparison procedure for comparing several treatments with a control.” Journal of the American Statistical Association. 50:1096-1121).

cyclooxygenase-1 = assay: Western blot of COX-1 protein in LPS-induced RAW 264.7 macrophages; conditions: 8 hour treatment
cyclooxygenase-2 = assay: Western blot of COX-2 protein in LPS-induced RAW 264.7 macrophages; conditions: 8 hour treatment, dose not given
Method: FIG. 9. […] After an 8 hour treatment with lipopolysaccharide (LPS) and H. gentianoides fractions, a protein extraction was performed on the RAW 264.7 macrophages. Separation of the proteins was carried out on a discontinuous (4% stacking, 10% resolving) sodium dodecyl sulfate-polyacrylamide (30% acrylamide/bis solution) (BioRad; Hercules, Calif.) gel, followed by transfer to a PVDF membrane (GE Healthcare; Piscataway, N.J.) at 100V for 2.5 hours. COX-2 rabbit polyclonal antibody (Santa Cruz Biotechnology, Santa Cruz, Calif.) was diluted 1:1000 in 5% milk Tris-buffered saline with 0.5% Tween-20 (TBS-T). The secondary antibody (goat, anti-rabbit IgG, HRP conjugated, Santa Cruz Biotechnology; Santa Cruz, Calif.) was diluted 1:1000 in 5% milk in TBS-T. Detection was visualized on blue sensitive autoradiographic film (Marsh Bioproducts; Rochester, N.Y.) with a chemiluminescence (ECLplus) detection kit (GE Healthcare; Piscataway, N.J.).
After an 8 hour treatment with lipopolysaccharide (LPS) and H. gentianoides fractions, RAW 264.7 cells were rinsed twice with ice cold 1× phosphate buffered saline (PBS). […] The protein concentration in each lysate was determined using the bicinchonic acid and copper sulfate protein assay (Sigma; St. Louis, Mo.). […]

Structure (SMILES) | lowest tested dose with significant reduction of PGE2 concentrations [1] | tested dose from which cytotoxicity is significant (RAW264.7 macrophages; RAW264.7 macrophages) | cytotoxicity (RAW264.7 macrophages; dose of 100 μM) | cyclooxygenase-1 protein (cyclooxygenase-1) | cyclooxygenase-2 enzyme (cyclooxygenase-2) | doses at which significant cytotoxicity stops (RAW264.7 macrophages; RAW264.7 macrophages, tested 0.5-100 μM)
CC(C)=CCc1c(O)c(CC2=C(O)C(C)(C)C(=O)C(C(=O)C(C)C)=C2O)c(O)c(C(=O)C(C)C)c1O [uliginosin A] | 10 µM | 100 µM | – | – | – | –
CC(C)=CCc1c(O)c(CC2=C(O)C(C)=C(O)C(CC=C(C)C)(C(=O)C(C)C)C2=O)c(O)c(C(=O)C(C)C)c1O (centres unmarked) [hyperbrasilol C] | 10 µM | – | no significant cytotoxicity | – | – | –
Cc1c(O)c(CC2=C(O)C(C)(C)C(=O)C(C(=O)C(C)C)=C2O)c(O)c(C(=O)C(C)C)c1O [saroaspidin A] | 2 µM | – | – | does not appear to be affected | reduces | ≤ 10 µM
